Test results reported in patent US6747021B2, “Cryptophycin compound” (Eli Lilly and Company, priority 2000, dated 2004).
Where two headings read alike, the source gives them in different places.

Experiments:
[1] = system: COLON ADENOCARCINOMA-26/A; type: in vivo, murine; settings: Balb/C female mice
Description: (§1) Inhibition of tumors transplanted into mice is an accepted procedure for studying the efficacy of antitumor agents (Corbett, et al., In vivo Methods for Screening and Preclinical Testing; Use of rodent solid tumors for drug discovery., In: Anticancer Drug Development Guide: Preclinical Screening, Clinical Trials, and Approval, B. Teicher (ed), Humana Press Inc., Totowa, N.J., Chapter 5, pages 75-99 (1997); (Corbett, et al., Int. J. Pharmacog., 33, Supplement, 102-122 (1995)). Murine tumors or human xenographs were implanted essentially as described by Corbett in In vivo Methods for Screening and Preclinical Testing; Use of rodent solid tumors for drug discovery. Briefly, the murine tumor or human xenograph was implanted subcutaneously using either 12-gauge trocar implants or counted number of cells. The location for the trocar insertion is midway between the axillary and inguinal region along the side of the mouse. The trocar is slipped approximately ¾ of an inch subcutaneously up toward the axilla before discharging the tumor fragment, and pinching the skin as the trocar is removed. Alternatively, human tumor cells prepared from a […] of donor tumors (5×10^6 cells) were implanted subcutaneously in a hind-leg of a male or female nude mouse (Charles River). Either a test compound in vehicle or vehicle alone was administered by intravenous bolus injection (iv), intraperitoneal injection (ip), or oral gavage (po). Each treatment group, as well as a group of untreated control animals, consisted of five animals per group in each experiment. Subcutaneous tumor response was monitored by tumor volume measurement performed twice each week over the course of the experiment (60-120 days). Body weights were taken as a general measure of toxicity. The subcutaneous tumor data were analyzed by determining the median tumor weight for each treatment group over the course of the experiment and calculating the tumor growth delay as the difference in days for the treatment versus the control tumors to reach a volume of either 500 or 1000 mm^3.
(§2) Cryptophycin-309 (309) was tested against a variety of murine and human tumors substantially as described supra. Cryptophycin-55 glycinate (55-GLY), Taxol, and Adriamycin (Adria) were also included in certain tests for purposes of comparison. Cryptophycin 55 glycinate is known in the art (WO 98/08505, Example 9) and has the following structure: [drawing 9]
(§3) Tumor Weight(mg)=(a×b^2)/2 where a=tumor length (mm) and b=tumor width (mm).
(§4) Tumor Growth Delay=T−C where T is the median time (days) required for the treatment group tumors to reach a predetermined size, and C is the median time (days) for the control group tumors to reach the same size. Tumor-free survivors are excluded from this calculation, and are tabulated separately (Tumor Free).
(§5) Log Kill=Tumor Growth Delay/(3.32)(Td)
(§6) where Tumor Growth Delay is as previously defined and Td is tumor volume doubling time (days), estimated from the best fit straight line from a log-linear growth plot of the control group of tumors in exponential growth (100-800 mg range)
(§7) %T/C mass—The treatment and control groups are measured when the control group tumors reach approximately 700 to 1200 mg in size (median group). The median tumor weight of each group is determined (including zeros). The T/C value in percent is an indication of antitumor effectiveness. A T/C≦42% is considered significant antitumor activity. A T/C<10% is considered to indicate highly significant antitumor activity.
(§8) Body Weight Loss Nadir—A body weight loss nadir (mean of group) of greater than 20% or drug deaths greater than 20% are considered to indicate an excessively toxic dosage in single course trials.
(§9) Activity Rating—the Activity Rating is derived from the Log Kill according to the following table: […]

[2] = system: MAMMARY ADENOCARCINOMA 16/C; type: in vivo, murine; settings: C3H/HeN female mice
Description: as §1, §2, §3, §4, §5, §6, §7, §8, §9

[3] = system: MAMMARY ADENOCARCINOMA-17/ADR/Resist.; type: in vivo, murine; settings: IV 30 mg/kg/inj days 1,3,5,7,9; total dose 150 mg/kg; C3H female mice
Description: as §1, §2, §3, §4, §5, §6, §7, §8, §9

[4] = system: PANCREATIC DUCTAL ADENOCARCINOMA #02; type: in vivo, murine; settings: BDF1 female mice
Description: as §1, §2, §3, §4, §5, §6, §7, §8, §9

HUMAN COLON ADEN[…]-116 = experiment: Early stage human colon adenocarcinoma HCT-116 xenograft assay; type: in vivo; settings: Balb/C SCID female mice
Description: as §1, §2, §3, §4, §5, §6, §7, §8, §9

[5] = IV 15 mg/kg/inj days 1,3,5,7,9, total dose 75 mg/kg
[6] = IV 23 mg/kg/inj days 1,3,5,7,9, total dose 115 mg/kg
[7] = IV 35 mg/kg/inj days 1,3,5,7,9, total dose 175 mg/kg
[8] = IV 20 mg/kg/inj days 3,5,7,9,11, total dose 100 mg/kg
[9] = IV 30 mg/kg/inj days 3,5,7,9,11, total dose 150 mg/kg
[10] = IV 20 mg/kg/inj days 1,3,5,7,9, total dose 100 mg/kg, experiment #
[11] = IV 30 mg/kg/inj days 1,3,5,7,9, total dose 150 mg/kg, experiment #
[12] = IV 33 mg/kg/inj days 1,3,5,7,9, total dose 165 mg/kg, experiment ##
[13] = IV 16.5 mg/kg/inj days 3,5,7,9,11, total dose 82.5 mg/kg
[14] = IV 25 mg/kg/inj days 3,5,7,9,11, total dose 125 mg/kg
[15] = IV 38 mg/kg/inj days 3,5,7,9,11, total dose 190 mg/kg

Structure (SMILES): COc1ccc(C[C@H]2NC(=O)/C=C/C[C@@H]([C@H](C)[C@@H](OC(=O)CN)[C@@H](Cl)c3ccccc3)OC(=O)[C@H](CC(C)(C)C)OC(=O)[C@H](C)CNC2=O)cc1Cl [Cryptophycin 309, Cryptophycin-309]
- % T/C MASS [1, 5]: 14%
- ACTIVITY RATING [1, 5]: + (0.7-1.2)
- DRUG DEATHS [1, 5]: 0/5
- GROWTH DELAY [1, 5]: 6.65 days
- LOG KILL [1, 5]: 1.2
- MEDIAN TUMOR WEIGHT [1, 5]: 126 mg
- % T/C MASS [1, 6]: 0%
- ACTIVITY RATING [1, 6]: +++ (2.0-2.8)
- DRUG DEATHS [1, 6]: 0/5
- GROWTH DELAY [1, 6]: 12.75 days
- LOG KILL [1, 6]: 2.3
- MEDIAN TUMOR WEIGHT [1, 6]: 0 mg
- % T/C MASS [1, 7]: 0%
- ACTIVITY RATING [1, 7]: +++ (2.0-2.8)
- DRUG DEATHS [1, 7]: 0/5
- GROWTH DELAY [1, 7]: 15.25 days
- LOG KILL [1, 7]: 2.7
- MEDIAN TUMOR WEIGHT [1, 7]: 0 mg
- % T/C MASS [2, 8]: 0%
- ACTIVITY RATING [2, 8]: ++++ (>2.8)
- DRUG DEATHS [2, 8]: 0/5
- GROWTH DELAY [2, 8]: 17 days
- LOG KILL [2, 8]: 3.9
- MEDIAN TUMOR WEIGHT [2, 8]: 0 mg
- % T/C MASS [2, 9]: 0%
- ACTIVITY RATING [2, 9]: ++++ (>2.8)
- DRUG DEATHS [2, 9]: 0/5
- GROWTH DELAY [2, 9]: 16.5 days
- LOG KILL [2, 9]: 3.8
- MEDIAN TUMOR WEIGHT [2, 9]: 0 mg
- % T/C MASS [3]: 0%
- ACTIVITY RATING [3]: ++++ (>2.8)
- DRUG DEATHS [3]: 0/5
- GROWTH DELAY [3]: 10.75 days
- LOG KILL [3]: 3.23
- MEDIAN TUMOR WEIGHT [3]: 0 mg
- % T/C MASS [4, 10]: 3.8%
- ACTIVITY RATING [4, 10]: ++ (1.3-1.9)
- DRUG DEATHS [4, 10]: 0/5
- GROWTH DELAY [4, 10]: 13 days
- LOG KILL [4, 10]: 1.7
- MEDIAN TUMOR WEIGHT [4, 10]: 63 mg
- % T/C MASS [4, 11]: 3.8%
- ACTIVITY RATING [4, 11]: ++ (1.3-1.9)
- DRUG DEATHS [4, 11]: 0/5
- GROWTH DELAY [4, 11]: 13 days
- LOG KILL [4, 11]: 1.7
- MEDIAN TUMOR WEIGHT [4, 11]: 64 mg
- % T/C MASS [4, 12]: 0%
- ACTIVITY RATING [4, 12]: +++ (2.0-2.8)
- DRUG DEATHS [4, 12]: 0/5
- GROWTH DELAY [4, 12]: 15.25 days
- LOG KILL [4, 12]: 2.7
- MEDIAN TUMOR WEIGHT [4, 12]: 0 mg
- % T/C MASS (HUMAN COLON ADEN[…]-116; [13]): 0%
- ACTIVITY RATING (HUMAN COLON ADEN[…]-116; [13]): +++ (2.0-2.8)
- DRUG DEATHS (HUMAN COLON ADEN[…]-116; [13]): 0/5
- GROWTH DELAY (HUMAN COLON ADEN[…]-116; [13]): 22 days
- LOG KILL (HUMAN COLON ADEN[…]-116; [13]): 2.65
- MEDIAN TUMOR WEIGHT (HUMAN COLON ADEN[…]-116; [13]): 0 mg
- % T/C MASS (HUMAN COLON ADEN[…]-116; [14]): 0%
- ACTIVITY RATING (HUMAN COLON ADEN[…]-116; [14]): ++++ (>2.8)
- DRUG DEATHS (HUMAN COLON ADEN[…]-116; [14]): 0/5
- GROWTH DELAY (HUMAN COLON ADEN[…]-116; [14]): 29.5 days
- LOG KILL (HUMAN COLON ADEN[…]-116; [14]): 3.6
- MEDIAN TUMOR WEIGHT (HUMAN COLON ADEN[…]-116; [14]): 0 mg
- % T/C MASS (HUMAN COLON ADEN[…]-116; [15]): 0%
- ACTIVITY RATING (HUMAN COLON ADEN[…]-116; [15]): ++++ (>2.8)
- DRUG DEATHS (HUMAN COLON ADEN[…]-116; [15]): 0/5
- GROWTH DELAY (HUMAN COLON ADEN[…]-116; [15]): 34 days
- LOG KILL (HUMAN COLON ADEN[…]-116; [15]): 4.1
- MEDIAN TUMOR WEIGHT (HUMAN COLON ADEN[…]-116; [15]): 0 mg
